Measured values: EP1135374B9, “BENZIMIDAZOLE COMPOUNDS THAT ARE VITRONECTIN RECEPTOR ANTAGONISTS” (SCHERING CORPORATION, priority 1998, dated 2000)

Columns and labels:
[1] = molecular target: T1, αvβ3 receptor (purified from human placenta) (Homo sapiens, UniProt P05106+P06756); test: competition radioligand binding assay, 125I-echistatin to αvβ3 receptor; conditions: αvβ3, inhibition of specific 125I-echistatin binding
T1 construct: αvβ3 receptor (purified from human placenta); from tissue; host or cells: human placenta
Protocol: The following assay procedure, which is a competition radioligand binding assay, was carried out to determine the activity of the foregoing compounds as αvβ3 antagonists. The competitive assay procedure described in Kumar, et. al., "Biochemical Characterization Of The Binding Of Echistatin To Integrin αvβ3 Receptor", Journal Of Pharmacology And Experimental Therapeutics, Vol. 283, No. 2, pp. 843-853 (1997) was employed. Thus, binding of ^125I-echistatin (radiolabeled by the chloramine-T method to a specific activity of 2000 Ci/mmol (Amersham, Chicago, Il.)) to αvβ3 receptor (purified from human placenta), both prepared as described in Kumar, et al., was competed by the compounds prepared in the foregoing examples. Purified αvβ3 receptor was coated onto Microlite-2 plates at a concentration of 50 ng/well. ^125I-echistatin was added to the wells to a final concentration of 0.05 nM in binding buffer (50 µl/well) in the presence of the competing test compound. The competing test compounds were employed at serially diluted concentrations ranging from 1 pM to 100 nM. After a 3 hour incubation at room temperature, the wells were washed, and radioactivity, reflecting binding by ^125 I-echistatin to αvβ3 receptors, was determined with Top Count (Packard). Each data point is an average of values from triplicate wells.
Specific binding of ^125I-echistatin was calculated as the difference between the amount of ^125I-echistatin bound in the absence (total binding) and the amount of ^125I-echistatin bound in the presence of a 200-fold molar excess of unlabeled echistatin (nonspecific binding). The efficacy of the test compounds for inhibiting specific binding of ^125I-echistatin to αvβ3 receptors was determined by plotting a graph of specific binding (y-axis) as a function of test compound concentration (x-axis). The concentration of test compound required to inhibit 50% of the specific binding (IC50) was determined from the plot. The IC50 may be directly converted mathematically to Ki, which is a measure of the receptor binding affinity of the compounds under the defined assay conditions.

[2] = molecular target: purified αllbβ3 receptor (Homo sapiens, UniProt P05106+P08514); test: similar competitive binding assay with 125I-echistatin on αllbβ3 receptor, used for the specificity index; conditions: specificity index IC50 αllbβ3/ IC50 αvβ3
Protocol: To measure the relative affinity of the test compounds for αvβ3 receptors versus affinity for αllbβ3 receptors, similar competitive assays were carried out using purified αllbβ3 receptor and ^125I-echistatin (iodinated using the lactoperoxidase method). The specificity index, which is a measure of the relative binding affinity for αvβ3, versus αllbβ3, may be determined by dividing the IC50 value for αllbβ3 by the IC50 value for αvβ3.

Row | SMILES | IC50 ([1]; Table 10) [nM] | SPECIFICITY αIIbβ3 / αvβ3 ([2]; Table 10) | also measured
1 | CCOC(=O)N(Cc1ccc(C(=O)NC[C@H](NC(=O)OCc2ccccc2)C(=O)O)cc1)Cc1nc2ccccc2[nH]1 [Example 5-20] | 7.2 | 15 | –
2 | CC(=O)OC(C(=O)N(Cc1ccc(C(=O)NC[C@H](NC(=O)OCc2ccccc2)C(=O)O)cc1)Cc1nc2ccccc2[nH]1)c1ccccc1 (stereo partly drawn) [Example 5-18] | 4.4 | 82 | –
3 | COCCNC(=S)N(Cc1ccc(C(=O)NC[C@H](NC(=O)OCc2ccccc2)C(=O)O)cc1)Cc1nc2ccccc2[nH]1 [Example 5-56] | 1.6 | 514 | –
4 | CCCCOC(=O)N[C@@H](CNC(=O)c1ccc(CN(Cc2nc3ccccc3[nH]2)C(=O)NCC(=O)OCC)cc1)C(=O)O [Example 5-86, N^3-[4-[(benzimidazol-2-yl)methyl][[(ethoxycarbonylmethyl)amino]-carbonyl]aminomethylbenzoyl]-N^2-(n-butoxycarbonyl)-L-2,3-diaminopropionic acid] | – | – | IC50 ([1]; Table 16): 3.3 nM; Specificity αllbβ3 / αvβ3 ([2]; Table 16): 793
5 | O=C(N[C@@H](CNC(=O)c1ccc(CN(Cc2nc3ccccc3[nH]2)C(=O)Nc2ccc(-c3ccccc3)cc2)cc1)C(=O)O)OCc1ccccc1 [Example 5-38] | 13.6 | 49 | –
6 | O=C(N[C@H](CNC(=O)c1ccc(CNCc2nc3ccccc3[nH]2)cc1)C(=O)O)OCc1ccccc1 [Example 5-57] | – | – | IC50 ([1]; Table 11): 1290 nM; Specificity αllbβ3 / αvβ3 ([2]; Table 11): 1.43
7 | CC(c1nc2ccccc2[nH]1)N(Cc1ccc(C(=O)NC[C@H](NC(=O)OCc2ccccc2)C(=O)O)cc1)C(=O)CCc1ccccc1 (stereo partly drawn) [Example 5-78] | – | – | IC50 ([1]; Table 15): 21 nM; SPECIFICITY αIIbβ3 / αvβ3 ([2]; Table 15): 33.9
8 | CCOC(=O)c1ccc(NC(=O)N(Cc2ccc(C(=O)NC[C@H](NC(=O)OCc3ccccc3)C(=O)O)cc2)Cc2nc3ccccc3[nH]2)cc1 [Example 5-47] | 2.2 | 1252 | –
9 | O=C(N[C@@H](CNC(=O)c1ccc(CN(Cc2nc3cc(Cl)ccc3[nH]2)C(=O)NC2CCCCC2)cc1)C(=O)O)OCc1ccccc1 [Example 5-94] | – | – | IC50 ([1]; Table 16): 3.8 nM; Specificity αllbβ3 / αvβ3 ([2]; Table 16): 399
10 | O=C(N[C@@H](CNC(=O)c1ccc(CN(Cc2nc3ccccc3[nH]2)C(=O)CCC2CCCC2)cc1)C(=O)O)OCc1ccccc1 [Example 5-14] | 5.8 | 117 | –
11 | CCOC(=O)[C@H](CCSC)NC(=O)N(Cc1ccc(C(=O)NC[C@H](NC(=O)OCc2ccccc2)C(=O)O)cc1)Cc1nc2ccccc2[nH]1 [Example 5-48] | 1 | 2028 | –
12 | CN(C)CC(=O)N(Cc1ccc(C(=O)NC[C@H](NC(=O)OCc2ccccc2)C(=O)O)cc1)Cc1nc2ccccc2[nH]1 [Example 5-24] | 5.3 | 14 | –
13 | CC(NC(=O)N(Cc1ccc(C(=O)NC[C@H](NC(=O)OCc2ccccc2)C(=O)O)cc1)Cc1nc2ccccc2[nH]1)c1cccc2ccccc12 (stereo partly drawn) [Example 5-36] | 11.7 | 129 | –
14 | O=C(N[C@@H](CNC(=O)c1ccc(CN(Cc2nc3ccccc3[nH]2)C(=O)C2CC2c2ccccc2)cc1)C(=O)O)OCc1ccccc1 (stereo partly drawn) [Example 5-22] | 6.4 | 26 | –
15 | CC(C)C(=O)N(Cc1ccc(C(=O)NC[C@H](NC(=O)OCc2ccccc2)C(=O)O)cc1)Cc1nc2ccccc2[nH]1 [Example 5-13] | 3.1 | 38 | –
16 | O=C(N[C@@H](CNC(=O)c1ccc(CN(Cc2nc3ccccc3[nH]2)C(=O)C2CCCCC2)cc1)C(=O)O)OCc1ccccc1 [Example 5-15] | 4.3 | 95 | –
17 | CCCCOC(=O)N[C@@H](CNC(=O)c1ccc(CN(Cc2nc3ccccc3[nH]2)C(=O)Nc2ccccc2)cc1)C(=O)O [Example 5-83] | – | – | IC50 ([1]; Table 16): 1.8 nM; Specificity αllbβ3 / αvβ3 ([2]; Table 16): 1689
18 | COCCC(=O)N(Cc1ccc(C(=O)NC[C@H](NC(=O)OCc2ccccc2)C(=O)O)cc1)Cc1nc2ccccc2[nH]1 [Example 5-25] | 4.5 | 52 | –
